Counter-ions that a name gives are not always drawn.
Tests used:
[1] = target: T1, 5HT6-human recombinant receptor (Homo sapiens, UniProt P50406); assay: Binding to serotonin receptor 5-HT6 ([3H]-LSD radioligand, HEK-293 cell membranes); set-up: purchased Receptor Biology; host or cells: HEK-293 cells (membranes); details: [3H]-LSD 2.7 nM, 60 minutes at 37° C., tests in triplicate
Protocol: Binding to Serotonin Receptor 5ht6
Cell membranes of HEK-293 cells expressing the 5HT6-human recombinant receptor were supplied by Receptor Biology. In said membranes the receptor concentration is 2.18 pmol/mg protein and the protein concentration is 9.17 mg/ml. The experimental protocol follows the method of B. L. Roth et al. [B. L. Roth et al., The Journal of Pharmacology and Experimental Therapeutics, 1994, 268, 1403] with the following slight changes. The respective part of the literature description is hereby incorporated by reference and forms part of the disclosure.
The commercial membrane is diluted (1:40 dilution) with the binding buffer: 50 mM Tris-HCl, 10 mM MgCl2, 0.5 mM EDTA (pH 7.4). The radioligand used is [^3H]-LSD at a concentration of 2.7 nM with a final volume of 200 μl. incubation is initiated by adding 100 μl of membrane suspension, (≈22.9 μg membrane protein), and is prolonged for 60 minutes at a temperature of 37° C. The incubation is ended by fast filtration in a Brandel Cell Harvester through fiber glass filters made by Schleicher & Schnell GF 3362 pretreated with a solution of polyethylenimine at 0.5%. The filters are washed three times with three milliliters of buffer Tris-HCl 50 mM pH 7.4. The filters are transferred to flasks and 5 ml of Ecoscint H liquid scintillation cocktail are added to each flask. The flasks are allowed to reach equilibrium for several hours before counting with a Wallac Winspectral 1414 scintillation counter. Non-specific binding is determined in the presence of 100 μM of serotonin, Tests were made in triplicate. The inhibition constants (Ki, nM) were calculated by non-linear regression analysis using the program EBDA/LIGAND described in Munson and Rodbard, Analytical Biochemistry, 1980, 107, 220, which is hereby incorporated by reference and forms part of the disclosure.

[2] = target: T1, 5HT6-human recombinant receptor; details: cited from earlier work
[3] = in vivo; cited from earlier work

T1 sequence (P50406 whole entry): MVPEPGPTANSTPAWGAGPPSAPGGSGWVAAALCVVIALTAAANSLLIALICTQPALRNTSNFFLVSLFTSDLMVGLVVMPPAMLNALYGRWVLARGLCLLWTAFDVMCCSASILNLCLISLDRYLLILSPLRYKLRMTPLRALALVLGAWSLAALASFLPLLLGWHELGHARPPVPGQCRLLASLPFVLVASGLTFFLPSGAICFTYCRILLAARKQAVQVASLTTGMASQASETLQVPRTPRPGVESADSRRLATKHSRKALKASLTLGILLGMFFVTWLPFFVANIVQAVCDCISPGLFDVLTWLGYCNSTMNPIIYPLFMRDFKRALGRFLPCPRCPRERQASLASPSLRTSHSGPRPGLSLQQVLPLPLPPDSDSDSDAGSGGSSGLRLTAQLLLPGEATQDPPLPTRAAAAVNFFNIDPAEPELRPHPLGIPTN

| Ki [1] | Structure (SMILES) | other results |
| --- | --- | --- |
| 0.0372 µM | CC(=O)N1CCc2ccc(NS(=O)(=O)c3c(Br)nc4sccn34)cc21 [Compound 38, 6-Bromo-imidazo[2,1-b]thiazole-5-sulfonic acid (1-acetyl-2,3-dihydro-1H-indol-6-yl)-amide] |  |
| 0.0111 µM | O=S(=O)(Nc1ccc2c(c1)CCC2)c1c(Cl)nc2sccn12 [Compound 1, 6-Chloro-imidazo[2,1-b] thiazole-5-sulfonic acid indan-5-ylamide] |  |
| 0.0071 µM | O=C1CCc2ccc(NS(=O)(=O)c3c(Cl)nc4sccn34)cc21 [Compound 28, 6-Chloro-imidazo[2,1-b]thiazole-5-sulfonic acid (3-oxo-indan-5-yl)-amide] |  |
| 0.0057 µM | O=S(=O)(Nc1ccc2[nH]ncc2c1)c1c(Cl)nc2sccn12 [Compound 25, 6-Chloro-imidazo[2,1-b]thiazole-5-sulfonic acid (1H-indazol-5-yl)-amide hydrochloride] |  |
| 0.0145 µM | Cc1nc2cc(NS(=O)(=O)c3c(Cl)nc4sccn34)ccc2s1 [Compound 4, 6-Chloro-imidazo[2,1-b] thiazole-5-sulfonic acid (2-methyl-benzothiazol-5-yl)-amide] |  |
| 0.0054 µM | CCN(CC)c1ccc(NS(=O)(=O)c2c(Cl)nc3sccn23)cc1 [Compound 32, 6-Chloro-imidazo[2,1-b]thiazole-5-sulfonic acid (4-diethylamino-phenyl)-amide hydrochloride] |  |
|  | CN(C)CCc1c[nH]c2ccc(NS(=O)(=O)c3ccc4c(Cl)cccc4c3)cc12 [Compound E-6837, 5-chloro-N-[3-(2-(dimethylamino)ethyl)-1H-indol-5-yl]naphthalene-2-sulphonamide] | binding for the recombinant human 5-HT6 receptor [2]: selective and high affinity binding; body weight [3]: significant body weight loss; food intake [3]: reduction in the food intake |
| 0.0128 µM | CC(=O)N1CCc2ccc(NS(=O)(=O)c3c(Cl)nc4sccn34)cc21 [Compound 20, 6-Chloro-imidazo[2,1-b]thiazole-5-sulfonic acid (1-acetyl-2,3-dihydro-1H-indol-6-yl)-amide] |  |
| 0.068 µM | O=S(=O)(Nc1ccc2c(c1)COC2)c1c(Cl)nc2sccn12 [Compound 31, 6-Chloro-imidazo[2,1-b]thiazole-5-sulfonic acid (1,3-dihydro-isobenzo furan-5-yl)-amide] |  |
| 0.0066 µM | CC(C)(C)OC(=O)n1ncc2cc(NS(=O)(=O)c3c(Br)nc4sccn34)ccc21 [Compound 60, 5-(6-Bromo-imidazo[2,1-b]thiazole-5-sulfonylamino)-indazole-1-carboxylic acid tert-butyl ester] |  |
| 0.02 µM | O=S(=O)(Nc1ccc2c(c1)CCN2)c1c(Cl)nc2sccn12 [Compound 23, 6-Chloro-imidazo[2,1-b]thiazole-5-sulfonic acid (2,3-dihydro-1H-indol-5-yl)-amide hydrochloride] |  |
| 0.019 µM | O=S(=O)(Nc1ccc2c(c1)CCCC2)c1c(Cl)nc2sccn12 [Compound 30, 6-Chloro-imidazo[2,1-b]thiazole-5-sulfonic acid (5,6,7,8-tetrahydro-naphthalen-2-yl)-amide] |  |
| 0.0074 µM | O=S(=O)(Nc1ccc2c(c1)NCC2)c1c(Cl)nc2sccn12 [Compound 34, 6-Chloro-imidazo[2,1-b]thiazole-5-sulfonic acid (2,3-dihydro-1H-indol-6-yl)-amide] |  |
| 0.0127 µM | O=S(=O)(Nc1ccc2ncsc2c1)c1c(Cl)nc2sccn12 [Compound 3, 6-Chloro-imidazo[2,1-b] thiazole-5-sulfonic acid benzothiazol-6-ylamide] |  |
| 0.023 µM | Cn1ccc2cc(NS(=O)(=O)c3c(Cl)nc4sccn34)ccc21 [Compound 15, 6-Chloro-imidazo[2,1-b] thiazole-5-sulfonic acid (1methyl-1H-indol-5-yl)-amide] |  |
| 0.0087 µM | CN(C)c1ccc(NS(=O)(=O)c2c(Cl)nc3sccn23)cc1 [Compound 16, 6-Chloro-imidazo[2,1-b] thiazole-5-sulfonic acid (4-dimethylamino-phenyl)-amide] |  |
| 0.0049 µM | O=C1CCc2ccc(NS(=O)(=O)c3c(Br)nc4sccn34)cc21 [Compound 41, 6-Bromo-imidazo[2,1-b]thiazole-5-sulfonic acid (3-oxo-indan-5-yl)-amide hydrochloride] |  |
| 0.0013 µM | CC(=O)N1CCc2cc(NS(=O)(=O)c3c(Br)nc4sccn34)ccc21 [Compound 37, 6-Bromo-imidazo[2,1-b]thiazole-5-sulfonic acid (1-acetyl-2,3-dihydro-1H-indol-5-yl)-amide] |  |
| 0.0016 µM | CC(=O)N1CCc2cc(NS(=O)(=O)c3c(Cl)nc4sccn34)ccc21 [Compound 19, 6-Chloro-imidazo[2,1-b]thiazole-5-sulfonic acid (1-acetyl-2,3-dihydro-1H-indol-5-yl)-amide] |  |
| 0.01 µM | O=S(=O)(Nc1ccc2[nH]ccc2c1)c1c(Br)nc2sccn12 [Compound 36, 6-Bromo-imidazo[2,1-b]thiazole-5-sulfonic acid (1H-indol-5-yl)-amide] |  |
